Data from patent US20220087996A1, “Histone acetylase p300 inhibitor and use thereof” (HINOVA PHARMACEUTICALS INC., priority 2018, published 2022).
Read-outs that look alike come from different tables or passages of the source.

Test system: CWR22RV1 cells
Test: Inhibition of proliferation of CWR22RV1 cells (CCK-8)
Format: cell-based, human
Settings: 6 days culture
Description: 1) CWR22RV1 cells were subcultured in cell culture medium, and the cells in good growth condition were seeded in a 96-well plate, 80 μL for each well, and the cell number in each well was 1500. The plate was incubated overnight in a 37° C., 5% CO2 cell incubator. 2) The drug was prepared as 30 mM stock solution with dimethyl sulfoxide (DMSO). Prior to use, the stock solution was diluted 3 times with DMSO, and then further diluted as 3-fold gradient to obtain 9 concentration gradients. Then, each concentration of compound was diluted 200 times with the culture solution (ensuring that the DMSO concentration in the culture system was 0.1%), and two replicate wells were set for each concentration. 20 μL of diluted compound solution was added to the cell culture well (with final concentrations of 10 μM, 3.3 μM. 1.1 μM . . . ), and the plate was gently shaken to mix. In addition, 3 negative control wells containing only cells and 3 blank control wells containing only culture medium were included (6 wells were each added 20 μL DMSO diluted 200 times with culture medium). 2. Result detection: (1) After culturing for 6 days, 10 μL CCK-8 was added to each well, and the plate was continually cultured in a 37° C., 5% CO2 cell incubator for 2.5 h. (2) The absorbance (OD value) was detected at 450 nm using a multifunctional microplate reader. (3) The data were analyzed by Dose-response-inhibition equation in the software GraphPad Prism6, and the IC50 value was obtained.

[1] = Homo sapiens, CWR22Rv1, 144 h, read-out: IC50 against CWR22RV1 cells
[2] = Homo sapiens, CWR22Rv1, 144 h, read-out: IC50 against CWR22RV1 cells (text)

Structure (SMILES)	IC50 [1] [µM]	IC50 [2] [µM]	IC50 (read-out: IC50 against CWR22RV1 cells) [µM]
CNC(=O)Nc1ccc2c(c1)CC[C@@]21OC(=O)N(CC(=O)N2CCCC2c2cccc[n+]2[O-])C1=O (stereo partly drawn) [Example 343, 2-(1-(2-((R)-5-(3-methylureido)-2′,4′-dioxo-2,3-dihydrospiro[indene-1,5′-oxazole]-3′-yl)acetyl)pyrrolidin-2-yl)pyridin-1-oxide]	> 2		
CNC(=O)Nc1ccc2c(c1)CC[C@@]21OC(=O)N(CC(=O)N2CCCC2c2ccc(F)cc2C)C1=O (stereo partly drawn) [Example 347, 1-((1R)-3′-(2-(2-(4-fluoro-2-methylphenyl)pyrrolidin-1-yl)-2-oxoethyl)-2′,4′-dioxo-2,3-dihydrospiro[indene-1,5′-oxazolidine]-5-yl)-3-methylurea]	0.5 to 2		
CNC(=O)Nc1ccc2c(c1)CC[C@@]21OC(=O)N(CC(=O)N2C(C)CCC2c2ccc(F)cc2)C1=O (stereo partly drawn) [Example 348, 1-((1R)-3′-(2-(2-(4-fluorophenyl)-5-methylpyrrolidin-1-yl)-2-oxoethyl)-2′,4′-dioxo-2,3-dihydrospiro[indene-1,5′-oxazolidine]-5-yl)-3-methylurea]	≤ 0.5	≤ 0.5	
CNC(=O)Nc1ccc2c(c1)CC[C@@]21OC(=O)N(CC(=O)N2C(C)CCC2(c2ccc(OC)cc2)c2ccc(OC)cc2)C1=O (stereo partly drawn) [Example 349, 1-((1R)-3′-(2-(2,2-bis(4-methoxyphenyl)-5-methylpyrrolidin-1-yl)-2-oxoethyl)-2′,4′-dioxo-2,3-dihydrospiro[indene-1,5′-oxazolidine]-5-yl)-3-methylurea]	> 2		
CNC(=O)Nc1ccc2c(c1)CC[C@@]21OC(=O)N(CC(=O)N2C(C)CCC2c2ccc(Cl)cc2C)C1=O (stereo partly drawn) [Example 351, 1-((1R)-3′-(2-(2-(4-chloro-2-methylphenyl)-5-methylpyrrolidin-1-yl)-2-oxoethyl)-2′,4′-dioxo-2,3-dihydrospiro[indene-1,5′-oxazolidine]-5-yl)-3-methylurea]	≤ 0.5	≤ 0.5	
CNC(=O)Nc1ccc2c(c1)CC[C@@]21OC(=O)N(CC(=O)N2C(C)CCC2c2ccc(C(F)(F)F)cc2C)C1=O (stereo partly drawn) [Example 352, 1-methyl-3-((1R)-3′-(2-(2-methyl-5-(2-methyl-4-(trifluoromethyl)phenyl)pyrrolidin-1-yl)-2-oxoethyl)-2′,4′-dioxo-2,3-dihydrospiro[indene-1,5′-oxazolidine]-5-yl)urea]	> 2		
CNC(=O)Nc1ccc2c(c1)CC[C@@]21OC(=O)N(CC(=O)N2C(C)CCC2c2ccc(F)cc2C)C1=O (stereo partly drawn) [Example 353, 1-((1R)-3′-(2-(2-(4-fluoro-2-methylphenyl)-5-methylpyrrolidin-1-yl)-2-oxoethyl)-2′,4′-dioxo-2,3-dihydrospiro[indene-1,5′-oxazolidine]-5-yl)-3-methylurea]	≤ 0.5	≤ 0.5	
CNC(=O)Nc1ccc2c(c1)CC[C@@]21OC(=O)N(CC(=O)N2C(C)CCC2c2ccc(F)cc2Br)C1=O (stereo partly drawn) [Example 354, 1-((1R)-3′-(2-(2-(2-bromo-4-fluorophenyl)-5-methylpyrrolidin-1-yl)-2-oxoethyl)-2′,4′-dioxo-2,3-dihydrospiro[indene-1,5′-oxazolidine]-5-yl)-3-methylurea]	0.5 to 2		
CNC(=O)Nc1ccc2c(c1)CCC21OC(=O)N(CC(=O)N2CCCCC23CCN(C(C)=O)CC3)C1=O (centres unmarked) [Example 355, 1-(3′-(2-(9-acetyl-1,9--1-yl)-2-oxoethyl)-2′,4′-dioxo-2,3-dihydrospiro[indene-1,5′-oxazolidine]-5-yl)-3-methylurea]	> 2		
CNC(=O)Nc1ccc2c(c1)CC[C@@]21OC(=O)N(CC(=O)N2C(C)CCC2c2ccc(F)cc2C(F)(F)F)C1=O (stereo partly drawn) [Example 356, 1-((1R)-3′-(2-(2-(4-fluoro-2-(trifluoromethyl)phenyl)-5-methylpyrrolidin-1-yl)-2-oxoethyl)-2′,4′-dioxo-2,3-dihydrospiro[indene-1,5′-oxazolidine]-5-yl)-3-methylurea]	> 2		
CNC(=O)Nc1ccc2c(c1)CC[C@@]21OC(=O)N(CC(=O)N2[C@@H](C)CC[C@H]2C2CCCCC2)C1=O [Example 357, 1-((R)-3′-(2-((2S,5S)-2-cyclohexyl-5-methylpyrrolidin-1-yl)-2-oxoethyl)-2′,4′-dioxo-2,3-dihydrospiro[indene-1,5′-oxazolidine]-5-yl)-3-methylurea]	≤ 0.5	≤ 0.5	
CNC(=O)Nc1ccc2c(c1)CC[C@@]21OC(=O)N(CC(=O)N2C(C)CCC2c2ccc(F)c(Cl)c2)C1=O (stereo partly drawn) [Example 359, 1-((1R)-3′-(2-(2-(3-chloro-4-fluorophenyl)-5-methylpyrrolidin-1-yl)-2-oxoethyl)-2′,4′-dioxo-2,3-dihydrospiro[indene-1,5′-oxazolidine]-5-yl)-3-methylurea]	≤ 0.5	≤ 0.5	
CNC(=O)Nc1ccc2c(c1)CCC21OC(=O)N(CC(=O)N2[C@@H](CO)CC[C@H]2c2ccc(F)cc2)C1=O (stereo partly drawn) [Example 361, 1-(3′-(2-((2S,5R)-2-(4-fluorophenyl)-5-(hydroxymethyl)pyrrolidin-1-yl)-2-oxoethyl)-2′,4′-dioxo-2,3-dihydrospiro[indene-1,5′-oxazolidine]-5-yl)-3-methylurea]	0.5 to 2		
CNC(=O)Nc1ccc2c(c1)CC[C@@]21OC(=O)N(CC(=O)N2C(c3ccc(F)cc3)CC[C@H]2CO)C1=O (stereo partly drawn) [Example 363, 1-((1R)-3′-(2-((5S)-2-(4-fluorophenyl)-5-(hydroxymethyl)pyrrolidin-1-yl)-2-oxoethyl)-2′,4′-dioxo-2,3-dihydrospiro[indene-1,5′-oxazolidine]-5-yl)-3-methylurea]	> 2		
CNC(=O)Nc1ccc2c(c1)CC[C@@]21OC(=O)N(CC(=O)N2C(c3ccc(F)cc3)CCC2(C)C)C1=O (stereo partly drawn) [Example 365, 1-((1R)-3′-(2-(5-(4-fluorophenyl)-2,2-dimethylpyrrolidin-1-yl)-2-oxoethyl)-2′,4′-dioxo-2,3-dihydrospiro[indene-1,5′-oxazolidine]-5-yl)-3-methylurea]	0.5 to 2		
CNC(=O)Nc1ccc2c(c1)CC[C@@]21OC(=O)N(CC(=O)N2C(c3ccc(F)c(F)c3)CCC2(C)C)C1=O (stereo partly drawn) [Example 366, 1-((1R)-3′-(2-(5-(3,4-difluorophenyl)-2,2-dimethylpyrrolidin-1-yl)-2-oxoethyl)-2′,4′-dioxo-2,3-dihydrospiro[indene-1,5′-oxazolidine]-5-yl)-3-methylurea]	0.5 to 2		
C=C[C@H]1CC[C@@H](c2ccc(F)cc2)N1C(=O)CN1C(=O)O[C@@]2(CCc3cc(NC(=O)NC)ccc32)C1=O [Example 367, 1-((R)-3′-(2-((2S,5R)-2-(4-fluorophenyl)-5-vinylpyrrolidin-1-yl)-2-oxoethyl)-2′,4′-dioxo-2,3-dihydrospiro[indene-1,5′-oxazolidine]-5-yl)-3-methylurea]	0.5 to 2		
CNC(=O)Nc1ccc2c(c1)CC[C@@]21OC(=O)N(CC(=O)N2C(C)(C)CCCC2(C)C)C1=O [Example 368]	> 2		
CNC(=O)Nc1ccc2c(c1)C1(CC1)CC21OC(=O)N(CC(=O)N2[C@@H](C)CC[C@H]2c2ccc(F)cc2)C1=O (stereo partly drawn) [Example 373, 1-(3′-(2-((2S,5S)-2-(4-fluorophenyl)-5-methylpyrrolidin-1-yl)-2-oxoethyl)-2′,4′-dioxo-dihydrospiro[cyclopropane-1,1′-indene-3′,5′-oxazolidin]-6′-yl)-3-methylurea]			> 2
CNC(=O)Nc1ccc2c(c1)CC[C@@]21OC(=O)N(CC(=O)N2C(c3ccc(F)c(F)c3)CC[C@@H]2C)C1=O (stereo partly drawn) [Example 374, 1-((R)-3′-(2-((5S)-2-(3,4-difluorophenyl)-5-methylpyrrolidin-1-yl)-2-oxoethyl)-2′,4′-dioxo-2,3-dihydrospiro[indene-1,5′-oxazolidine]-5-yl)-3-methylurea]	> 2		
CNC(=O)Nc1ccc2c(c1)CC[C@@]21OC(=O)N(CC(=O)N2C(c3ccncc3)CC[C@@H]2C)C1=O (stereo partly drawn) [Example 375, 1-methyl-3-(3′-(2-((2S)-2-methyl-5-(pyridin-4-yl)pyrrolidin-1-yl)-2-oxoethyl)-2′,4′-dioxo-2,3-dihydrospiro[indene-1,5′-oxazolidine]-5-yl)urea]	> 2		
C[C@H]1CC[C@@H](c2ccc(F)cc2)N1C(=O)CN1C(=O)O[C@@]2(CCc3cc(NC(=O)C(F)F)ccc32)C1=O [Example 376, 2,2-difluoro-N—((R)-3′-(2-((2S,5S)-2-(4-fluorophenyl)-5-methylpyrrolidin-1-yl)-2-oxoethyl)-2′,4′-dioxo-2,3-dihydrospiro[indene-1,5′-oxazolidine]-5-yl)acetamide]	0.5 to 2		
CO[C@@H](C)C(=O)Nc1ccc2c(c1)CC[C@@]21OC(=O)N(CC(=O)N2[C@@H](C)CC[C@H]2c2ccc(F)cc2)C1=O [Example 377, (S)—N—((R)-3′-(2-((2S,5S)-2-(4-fluorophenyl)-5-methylpyrrolidin-1-yl)-2-oxoethyl)-2′,4′-dioxo-2,3-dihydrospiro[indene-1,5′-oxazolidine]-5-yl)-2-methoxypropionamide]	0.5 to 2		
CNC(=O)Nc1ccc2c(c1)CC[C@@]21OC(=O)N(CC(=O)N2C(C)CC[C@H]2CN2CCC3(CC2)CC3(F)F)C1=O (stereo partly drawn) [Example 378, 1-((1R)-3′-(2-((2S)-2-((1,1-difluoro-6-aza-spiro[2.5]octan-6-yl)methyl)-5-methylpyrrolidin-1-yl)-2-oxoethyl)-2′,4′-dioxo-2,3-dihydrospiro[indene-1,5′-oxazolidine]-5-yl)-3-methylurea]	> 2		
